Patent EP1077981B1, “NOVEL CEPHALOSPORIN COMPOUNDS, PROCESSES FOR PREPARATION THEREOF AND ANTIMICROBIAL COMPOSITIONS CONTAINING THE SAME” (LG CHEMICAL LIMITED, priority 1998, dated 1999)
Values after ≈ are worked out from the molar mass of the structure shown. Read-outs that look alike come from different tables or passages of the source.

Legend:
E. coli = experiment: MIC against standard strains (agar dilution); type: cell-based; details: Escherichia coli, Mueller-Hinton agar, 10^7 cfu/mℓ, 20 hours at 37°C
Method: (§1) Test example 1: Measurement of Minimum Inhibitory Concentration (MIC)
(§2) Specifically, test compounds were diluted by 2-fold dilution method and dispersed in Mueller-Hinton agar medium and then, 2µℓ of test strains were inoculated at a concentration of 10^7 cfu(colony forming unit)/mℓ on the medium and incubated for 20 hours at 37°C.

H. influenzae = experiment: MIC against standard strains (agar dilution); type: cell-based; details: Haemophilus influenzae
Method: as §1, §2

P. vulgaris = experiment: MIC against standard strains (agar dilution); type: cell-based; details: Proteus vulgaris, Mueller-Hinton agar, 10^7 cfu/mℓ, 20 hours at 37°C
Method: as §1, §2

S. aureus = experiment: MIC against standard strains (agar dilution); type: cell-based; details: Staphylococcus aureus, Mueller-Hinton agar, 10^7 cfu/mℓ, 20 hours at 37°C
Method: as §1, §2

S. pneumoniae = experiment: MIC against standard strains (agar dilution); type: cell-based; details: Streptococcus pneumoniae, Mueller-Hinton agar, 10^7 cfu/mℓ, 20 hours at 37°C
Method: as §1, §2

[1] = Pharmacokinetic experiment (blood concentration by HPLC); type: in vivo, mice; details: mice, 20mg/kg; for AUC / half-life: male, mouse, blood
Method: Test example 2: Pharmacokinetic experiment
Male mice, each of which has a body weight of […] were used in the present pharmacokinetic experiment. Test compounds were formulated into 1% of solution and then, the solution was administered by oral route and by injection with a dose of 20mg/kg, respectively. At the fixed interval of time after administration, blood was gathered from the mice. Concentrations of test compounds in blood were measured by HPLC quantitative analysis and based on the results, pharmacokinetic parameters were calculated.

| MIC (H. influenzae; H. influenzae, Mueller-Hinton agar, 10^7 cfu/mℓ, 20 hours at 37°C, read-out: MIC) | AUC ([1]; Oral administration) | half-life ([1]; Oral administration) | half-life ([1]; intravenous injection) | maximum conc. ([1]; Oral administration) | Structure (SMILES) | MIC (E. coli) | MIC (P. vulgaris) | MIC (S. aureus) | MIC (S. pneumoniae) | AUC ([1]; intravenous, Injection) | half-life ([1]; intravenous, Injection) | MIC (H. influenzae; 20 h) |
| --- | --- | --- | --- | --- | --- | --- | --- | --- | --- | --- | --- | --- |
| 0.25 µg/mL (≈ 0.632 µM) | 6380 ng·h/mL | 1.23 h | 0.35 h | 2.9 µg/mL | C=CC1=C(C(=O)O)N2C(=O)[C@@H](NC(=O)/C(=N\O)c3csc(N)n3)[C@H]2SC1 [Cefdinir, reference compound] | 0.016 µg/mL (≈ 0.0405 µM) | 0.031 µg/mL (≈ 0.0784 µM) | 0.031 µg/mL (≈ 0.0784 µM) | 4 µg/mL (≈ 10.1 µM) | 50000 ng·h/mL | 0.35 h | – |
| – | – | – | – | – | CO/N=C(\C(=O)NC1C(=O)N2C(C(=O)O)=C(SCSc3nccc(N)n3)CSC12)c1csc(N)n1 (stereo not shown) [Compound No. 2, 7-[(Z)-2-(2-amino-thiazol-4-yl)-2-methoxyimino-acetylamino]-8-oxo-3-(4-amino-pyrimidin-2-ylsulfanylmethylsulfanyl)-5-t hia-1-aza-bicyclo[4,2,0]oct-2-ene-2-carboxylic acid] | 0.063 µg/mL (≈ 0.114 µM) | 0.031 µg/mL (≈ 0.0559 µM) | 0.5 µg/mL (≈ 0.901 µM) | 0.25 µg/mL (≈ 0.451 µM) | – | – | 0.008 µg/mL (≈ 0.0144 µM) |
| – | – | – | – | – | CO/N=C(\C(=O)NC1C(=O)N2C(C(=O)O)=C(SCSc3ncccn3)CSC12)c1csc(N)n1 (stereo not shown) [compound 1, 7-[(Z)-2-(2-amino-thiazol-4-yl)-2-methoxyimino-acetylamino]-8-oxo-3-(pyrimidin-2-ylsulfanylmethylsulfanyl)-5-thia-1-aza-bicyclo[4,2,0]oct-2-ene-2-carboxylic acid] | 0.13 µg/mL (≈ 0.241 µM) | 0.063 µg/mL (≈ 0.117 µM) | 0.5 µg/mL (≈ 0.927 µM) | 0.5 µg/mL (≈ 0.927 µM) | – | – | 0.008 µg/mL (≈ 0.0148 µM) |
| – | – | – | – | – | CO/N=C(\C(=O)NC1C(=O)N2C(C(=O)O)=C(SCSc3nc(N)cc(N)n3)CSC12)c1csc(N)n1 (stereo not shown) [compound 3, 7-[(Z)-2-(2-amino-thiazol-4-yl)-2-methoxyimino-acetylamino]-3-(4,6-diamino-pyrimidin-2-ylsulfanylmethylsulfanyl)-8-oxo-5-thia-1-aza-bicyclo[4,2,0]oct-2-ene-2-carboxylic acid] | 0.063 µg/mL (≈ 0.111 µM) | 0.016 µg/mL (≈ 0.0281 µM) | 0.5 µg/mL (≈ 0.878 µM) | 0.25 µg/mL (≈ 0.439 µM) | – | – | 0.016 µg/mL (≈ 0.0281 µM) |
| – | – | – | – | – | CO/N=C(\C(=O)NC1C(=O)N2C(C(=O)O)=C(SCSc3cc(N)nc(N)n3)CSC12)c1csc(N)n1 (stereo not shown) [compound 4, 7-[(Z)-2-(2-amino-thiazol-4-yl)-2-methoxyimino-acetylamino]-3-(2,6-diamino-pyrimidin-4-ylsulfanylmethylsulfanyl)-8-oxo-5-thia-1-aza-bicyclo[4,2,0]oct-2-ene-2-carboxylic acid] | 0.063 µg/mL (≈ 0.111 µM) | 0.016 µg/mL (≈ 0.0281 µM) | 0.25 µg/mL (≈ 0.439 µM) | 0.13 µg/mL (≈ 0.228 µM) | – | – | 0.008 µg/mL (≈ 0.014 µM) |
| – | – | – | – | – | Nc1cc(N)nc(SCSC2=C(C(=O)O)N3C(=O)C(NC(=O)/C(=N\O)c4csc(N)n4)C3SC2)n1 (stereo not shown) [compound 5, 7-[(Z)-2-(2-amino-thiazol-4-yl)-2-hydroxyimino-acetylamino]-3-(4,6-diamino-pyrimidin-2-ylsulfanylmethylsulfanyl)-8-oxo-5-thia-1-aza-bicyclo[4,2,0]oct-2-ene-2-carboxylic acid] | 0.063 µg/mL (≈ 0.113 µM) | 0.031 µg/mL (≈ 0.0558 µM) | 0.13 µg/mL (≈ 0.234 µM) | 1 µg/mL (≈ 1.8 µM) | – | – | 0.25 µg/mL (≈ 0.45 µM) |
| – | – | – | – | – | Nc1cc(SCSC2=C(C(=O)O)N3C(=O)C(NC(=O)/C(=N\O)c4csc(N)n4)C3SC2)nc(N)n1 (stereo not shown) [compound 6, 7-[(Z)-2-(2-amino-thiazol-4-yl)-2-hydroxyimino-acetylamino]-3-(2,6-diamino-pyrimidin-4-ylsulfanylmethylsulfanyl)-8-oxo-5-thia-1-aza-bicyclo[4,2,0]oct-2-ene-2-carboxylic acid] | 0.031 µg/mL (≈ 0.0558 µM) | 0.031 µg/mL (≈ 0.0558 µM) | 0.13 µg/mL (≈ 0.234 µM) | 0.5 µg/mL (≈ 0.9 µM) | – | – | 0.5 µg/mL (≈ 0.9 µM) |
| – | – | – | – | – | CO/N=C(\C(=O)NC1C(=O)N2C(C(=O)O)=C(SCSc3cc(N)nc(N)n3)CSC12)c1nc(N)sc1Cl (stereo not shown) [compound 8, 7-[(Z)-2-(2-amino-5-chloro-thiazol-4-yl)-2-methoxyimino-acetylamino]-3-(2,6-diamino-pyrimidin-4-ylsulfanylmethylsulfanyl)-8-oxo-5-thia-1-aza-bicyclo[4,2,0]oct-2-ene-2-carboxylic acid] | 0.25 µg/mL (≈ 0.414 µM) | 0.25 µg/mL (≈ 0.414 µM) | 0.25 µg/mL (≈ 0.414 µM) | 0.13 µg/mL (≈ 0.215 µM) | – | – | 0.031 µg/mL (≈ 0.0513 µM) |
| – | 6320 ng·h/mL | 1.15 h | – | 3.2 µg/mL | CO/N=C(\C(=O)NC1C(=O)N2C(C(=O)O)=C(SCc3cnc(N)nc3N)CSC12)c1csc(N)n1 (stereo not shown) [compound 19, 7-[(Z)-2-(2-amino-1,3-thiazol-4-yl)-2-methoxyimino-acetylamino]-3-(2,4-diaminopyrimidin-5-ylmethylsulfanyl)-8-oxo-5-t hia-1-aza-bicyclo[4,2,0]oct-2-ene-2-carboxylic acid] | – | – | – | – | – | – | – |
| – | – | – | – | – | CO/N=C(\C(=O)NC1C(=O)N2C(C(=O)O)=C(SCc3cc(N)nc(N)n3)CSC12)c1csc(N)n1 (stereo not shown) [compound 20, 7-[(Z)-2-(2-amino-1,3-thiazol-4-yl)-2-methoxyimino-acetylamino]-3-(2,4-diaminopyrimidin-6-ylmethylsulfanyl)-8-oxo-5-t hia-1-aza-bicyclo[4,2,0]oct-2-ene-2-carboxylic acid] | 0.031 µg/mL (≈ 0.0577 µM) | 0.016 µg/mL (≈ 0.0298 µM) | 2 µg/mL (≈ 3.72 µM) | 2 µg/mL (≈ 3.72 µM) | – | – | 0.031 µg/mL (≈ 0.0577 µM) |

| Structure (SMILES) | MIC (H. influenzae; H. influenzae, Mueller-Hinton agar, 10^7 cfu/mℓ, 20 hours at 37°C, read-out: MIC) | AUC ([1]; Oral administration) | half-life ([1]; Oral administration) | half-life ([1]; intravenous injection) | maximum conc. ([1]; Oral administration) | MIC (E. coli) | MIC (P. vulgaris) | MIC (S. aureus) | MIC (S. pneumoniae) | AUC ([1]; intravenous, Injection) | half-life ([1]; intravenous, Injection) | MIC (H. influenzae; 20 h) |
| --- | --- | --- | --- | --- | --- | --- | --- | --- | --- | --- | --- | --- |
| Nc1cc(SCSC2=C(C(=O)O)N3C(=O)C(NC(=O)/C(=N\O)c4nc(N)sc4Cl)C3SC2)nc(N)n1 (stereo not shown) [compound 7, 7-[(Z)-2-(2-amino-5-chloro-thiazol-4-yl)-2-hydroxyimino-acetylamino]-3-(2,6-diamino-pyrimidin-4-ylsulfanylmethylsulfanyl)-8-oxo-5-thia-1-aza-bicyclo[4,2,0]oct-2-ene-2-carboxylic acid] | – | 59900 ng·h/mL | 2.8 h | – | 13.8 µg/mL | 0.25 µg/mL (≈ 0.424 µM) | 0.25 µg/mL (≈ 0.424 µM) | 0.13 µg/mL (≈ 0.22 µM) | 0.25 µg/mL (≈ 0.424 µM) | 107000 ng·h/mL | 2.32 h | 0.13 µg/mL (≈ 0.22 µM) |
